Test results reported in ChEMBL document CHEMBL1124536, “Heteroaromatic analogues of the alpha 2-adrenoreceptor partial agonist clonidine” (J Med Chem, 1989).
One block for each compound: values may come before it.

Columns and labels:
[1] = target: T1, Adrenergic receptor alpha-2 (Rattus norvegicus) (UniProt P22086+P19328+P22909); assay: In vitro agonist activity against alpha-2A adrenergic receptor in rat vas deferens; type: functional, tissue-based
[2] = target: T1, Adrenergic receptor alpha-2 (Rattus norvegicus); assay: In vitro antagonistic activity against alpha-2A adrenergic receptor in rat vas deferens; Ag means compound was agonist.; type: functional; conditions: filed as agonist
[3] = target: T2, Adrenergic receptor alpha-1 (Rattus norvegicus) (UniProt P15823+P23944+P43140); assay: In vitro agonist activity against alpha-1 adrenergic receptor in rat anococcygeus; type: functional
[4] = target: T2, Adrenergic receptor alpha-1 (Rattus norvegicus); assay: In vitro antagonistic activity against alpha-1 adrenergic receptor in rat anococcygeus; Ag means compound was agonist.; type: functional; conditions: filed as agonist
[5] = target: T2, Adrenergic receptor alpha-1 (Rattus norvegicus); assay: In vitro antagonistic activity against alpha-1 adrenergic receptor in rat anococcygeus; type: functional
Rattus norvegicus [6] = species on record: Rattus norvegicus; assay: Antagonist activity against guanoxabenz-induced mydriasis in rat when given […]; type: functional
Rattus norvegicus [7] = assay: Effective dose of the compound required to inhibit electrically evoked contractions of rat vas deferens after i.v. administration; type: functional; conditions: iv
Rattus norvegicus [8] = species on record: Rattus norvegicus; assay: Maximum percent inhibition electrically evoked contractions of rat vas deferens by the compound was determined as test for its agonistic activity; type: functional
[9] = target: T1, Adrenergic receptor alpha-2 (Rattus norvegicus); assay: In vitro agonist activity against alpha-2 adrenoceptor in rat vas deferens; type: functional, tissue-based
[10] = target: T2, Adrenergic receptor alpha-1 (Rattus norvegicus); assay: In vitro agonist activity against alpha-1 adrenoceptor in rat anococcygeus; type: functional
[11] = target: T2, Adrenergic receptor alpha-1 (Rattus norvegicus); assay: In vitro antagonistic activity against alpha1 adrenoceptor in rat anococcygeus; Ag means compound was agonist.; type: functional; conditions: filed as agonist
[12] = target: T1, Adrenergic receptor alpha-2 (Rattus norvegicus); assay: In vitro antagonistic activity against alpha-2 adrenoceptor in rat vas deferens; type: functional, tissue-based
[13] = target: T1, Adrenergic receptor alpha-2 (Rattus norvegicus); assay: In vitro antagonistic activity against alpha-2A adrenergic receptor in rat vas deferens; type: functional, tissue-based
[14] = target: T1, Adrenergic receptor alpha-2 (Rattus norvegicus); conditions: Vas deferens
Description: Inhibitory activity against Alpha-2 adrenergic receptor in rat vas deferens

[15] = target: T2, Adrenergic receptor alpha-1 (Rattus norvegicus); assay: In vitro antagonistic activity against Alpha-1 adrenergic receptor in rat anococcygeus; type: functional
[16] = target: T1, Adrenergic receptor alpha-2 (Rattus norvegicus); assay: Antagonistic potency towards alpha-2 adrenergic receptor was determined by observing twich response of rat vas deferens after i.v. administration; type: functional, organism-based
[17] = target: T1, Adrenergic receptor alpha-2 (Rattus norvegicus); assay: In vitro agonist activity against Alpha-2 adrenergic receptor in rat vas deferens; type: functional, tissue-based
[18] = target: T1, Adrenergic receptor alpha-2 (Rattus norvegicus); assay: In vitro antagonistic activity against Alpha-2 adrenergic receptor in rat vas deferens; Ag means compound was agonist.; type: functional; conditions: filed as agonist
[19] = target: T1, Adrenergic receptor alpha-2 (Rattus norvegicus); assay: In vitro antagonistic activity against alpha-2 adrenoceptor in rat vas deferens; Ag means compound was agonist.; type: functional; conditions: filed as agonist
Rattus norvegicus [20] = species on record: Rattus norvegicus; assay: Antagonist potency for alpha 2 adrenoceptor; type: functional, organism-based; conditions: read-out: pA2 (converted)

SMILES: Brc1c(NC2=NCCN2)ccc2nccnc12 [BRIMONIDINE]
ED40 (Rattus norvegicus [7]): 0.0033 mg/kg | Inhibition (Rattus norvegicus [8]): 100%

SMILES: O=C1COc2cc(NC3=NCCN3)ccc2N1
Potency [9]: 0 | Potency [10]: 0.006 | Potency [11]: Agonist | Potency [12]: 0.0013

SMILES: Nc1cc(Cl)c(N=C2NCCN2)c(Cl)c1
IC40 [14]: 1.99 nM

SMILES: c1cc2c(cc1NC1=NCCN1)OCCO2
Potency [17]: 1.5 | Potency [18]: Agonist | Potency [10]: 0.01 | Potency [11]: Agonist

SMILES: O=C1COc2ccc(NC3=NCCN3)cc2N1
Potency [1]: 0 | Potency [13]: 0.0005 | Potency [3]: 0.002 | Potency [4]: Agonist

SMILES: c1cc2c(cc1NC1=NCCN1)OCO2
Potency [1]: 0.03 | Potency [13]: 0.025 | Potency [3]: 0 | Potency [5]: 0.003

SMILES: Clc1cccc(Cl)c1NC1=NCCN1
Potency [9]: 0.49 | Potency [19]: Agonist | Potency [10]: 0.8 | Potency [11]: Agonist

SMILES: c1ccc2c(c1)OCC(C1=NCCN1)O2 (centres undefined) [IDAZOXAN]
AD50 (Rattus norvegicus [6]): 0.02936 mg/kg | Kb (Rattus norvegicus [20]): 10.5 nM | DR2 (ug min-1 kg-1) [16]: 2

SMILES: CC(=O)N1CCc2ccc(NC3=NCCN3)cc21
Potency [1]: 0.006 | Potency [2]: Agonist | Potency [3]: 0 | Potency [5]: 2e-05

Now from value to compound, other results behind:

Potency [1]: 0.025 | Potency [2]: Agonist | Potency [3]: 0.5 | Potency [4]: Agonist
SMILES: CN1CCOc2ccc(NC3=NCCN3)cc21

Potency [1]: 0.22 | Potency [2]: Agonist | Potency [3]: 0 | Potency [5]: 0.0005
SMILES: CS(=O)(=O)N1CCOc2ccc(NC3=NCCN3)cc21.I
AD50 (Rattus norvegicus [6]): >0.3 mg/kg | ED40 (Rattus norvegicus [7]): 0.0273 mg/kg | Inhibition (Rattus norvegicus [8]): 70%

Potency [1]: < 0.01 | Potency [2]: Agonist | Potency [3]: 0.055 | Potency [4]: Agonist
SMILES: CCN1CCOc2cc(NC3=NCCN3)ccc21

Potency [1]: 0 | Potency [13]: 0.04 | Potency [3]: 0.17 | Potency [4]: Agonist
SMILES: CCN1CCc2ccc(NC3=NCCN3)cc21

Potency [1]: 0.02 | Potency [2]: Agonist | Potency [15]: 0.0006 | DR2 (ug min-1 kg-1) [16]: 6.8
SMILES: I.O=CN1CCOc2ccc(NC3=NCCN3)cc21
AD50 (Rattus norvegicus [6]): 0.297 mg/kg | ED40 (Rattus norvegicus [7]): 0.385 mg/kg | Inhibition (Rattus norvegicus [8]): 62%

Potency [1]: 0.03 | Activity [2]: Agonist | Potency [3]: 0.0002 | Activity [4]: Agonist | DR2 (ug min-1 kg-1) [16]: 4.62
SMILES: CN1CCOc2cc(NC3=NCCN3)ccc21.I
AD50 (Rattus norvegicus [6]): 0.0589 mg/kg | ED40 (Rattus norvegicus [7]): 6.74 mg/kg | Inhibition (Rattus norvegicus [8]): 65%

Potency [1]: 0.02 | Potency [2]: Agonist | Potency [3]: 0 | Potency [5]: 0.001
SMILES: c1ccc(CN2CCOc3cc(NC4=NCCN4)ccc32)cc1

Potency [9]: 0.006 | Potency [19]: Agonist | Potency [10]: 0.02 | Potency [11]: Agonist
SMILES: O=CN1CCOc2cc(NC3=NCCN3)ccc21

Potency [1]: 0.1 | Potency [2]: Agonist | Potency [3]: 0 | Potency [5]: 0.0006
SMILES: CC(=O)N1CCOc2ccc(NC3=NCCN3)cc21.I
AD50 (Rattus norvegicus [6]): >0.2 mg/kg | ED40 (Rattus norvegicus [7]): 0.0179 mg/kg | Inhibition (Rattus norvegicus [8]): 69%
